Source: US7345089B2, “Microbial method of making equol-containing composition and product made” (Otsuka Pharmaceutical Co., Ltd., priority 1997, dated 2008)

Tests used:
[1] = Determination of urinary excretions of isoflavonoids in perimenopausal women (survey)
Protocol: To accomplish the above object, the inventors first conducted a dietary survey, determination of urinary excretions of isoflavonoids, and a questionnaire survey about menopausal syndrome (unidentified clinical syndrome) in perimenopausal women in a broad geographical area including urban communities.
Furthermore, women with paramenia and those within 5 years of the menopause being taken together as menopausal subjects, a questionnaire survey was conducted using 17 items which are in routine use in the diagnosis of menopausal syndrome [17 items as a modification of Kupperman menopausal index (Kupperman H. S., et al., (1953), J. Clin. Endocrinol. Metabol., 13, 688-703), i.e. 1. hot flushes, 2. perspiration, 3. local sensation of cold, 4. shortness of breath, 5. numbness of limbs, 6. hypesthesia, 7. difficulty in falling asleep, 8. fitful sleep, 9. irritability, 10. nervousness, 11. melancholy, 12. vertigo, nausea, 13. weakness(fatigue), 14. stiff shoulders, pain in joints, muscular pain, 15. headache, 16. palpitation, 17. tingling sensation] and the simplified menopausal index (SMI) was calculated. With subjects with SMI values not less than 20 being taken as a group of high climacteric symptoms and those with SMI values not greater than 19 as a group of low climacteric symptoms, the amount of intake of isoflavonoids and the urinary excretion of isoflavonoids were respectively compared between the groups.

[2] = Urinary excretion of isoflavonoids after single ingestion of soy milk in healthy adult volunteers; conditions: healthy adult volunteers 25-33 years of age
[3] = human, in vivo
[4] = SMI not less than 20 vs SMI not greater than 19, equol p<0.01

| urinary excretions, group of high climacteric symptoms vs group of low climacteric symptoms [1, 4] | subjects in whom detected in urine ([1]; of the 95 subjects, number (%)) | average urinary excretions of isoflavonoids ([1]; women aged between 40 and 60) [µmol/day] | urinary excretions after single ingestion of soy milk [2] | average urinary excretions of isoflavonoids ([1]; female, human, in vivo) [µmol/day] | average excretions of equol (urinary) ([1]; in vivo) [µmol/day] | subjects in whom detected in urine ([1]; in vivo) | urinary excretions, group of high climacteric symptoms vs group of low climacteric symptoms ([1]; in vivo) | equol in urine when intake of soy milk increased two-fold [3] | Compound |
| --- | --- | --- | --- | --- | --- | --- | --- | --- | --- |
| no intergroup difference | detected in all the subjects | 10.0 | increased in a dose-related fashion |  |  |  |  |  | O=c1c(-c2ccc(O)cc2)coc2cc(O)cc(O)c12 [genistein] |
| no intergroup difference |  |  | increased in a dose-related fashion | 19.6 |  |  |  |  | O=c1c(-c2ccc(O)cc2)coc2cc(O)ccc12 [daidzein] |
|  |  |  |  |  | 11.9 | 46 (51.6%) | significantly low | not detected | Oc1ccc(C2COc3cc(O)ccc3C2)cc1 (centres unmarked) [equol] |
